Results on one compound are retold here after patent publication EP0531938B1, “Acrylic gel material and gel-based medical preparation for percutaneous absorption employing the same” (NITTO DENKO CORPORATION, priority 1991, dated 1993).

A short description of the data set: Solubility of drug in pressure-sensitive adhesive and in liquid component. The class given is physicochemical. The note with it: percent by weight.

As for `O=[N+]([O-])O[C@H]1CO[C@H]2[C@@H]1OC[C@H]2O[N+](=O)[O-]` [isosorbide dinitrate], the “solubility in isopropyl myristate” value worked out at 2.1%. Also, the “solubility in the pressure-sensitive adhesive” value (adhesive of Comparative Example 15 (95 parts 2-ethylhexyl acrylate, 5 parts acrylic acid)) was determined as 7%.
